Measured values as given in patent US7608604B2, “Antiparasitic agents” (Pfizer Limited, priority 2007, dated 2009).

These compounds were tested on Haemonchus contortus L3 (assay: Haemonchus contortus L3 (HcL3) in vitro test). Details: minimum effective dose; table of Examples 13a-42; 13a/b, 27a/b, 29a/b, 33a/b tested as mixtures of regioisomers.
Type: cell-based
Description: The Haemonchus contortus L3 (HcL3) test is used to measure the biological activities of the compounds claimed. The assay involves in vitro testing against H. contortus conducted according to the following general procedure.
HcL3 larvae were collected from infected sheep and, after cleaning, stored in water at 12° C. for up to one month. Viable infective larvae were exsheathed using 10% hypochlorite in Glucose Tyrodes balanced salt solution containing antibiotics and resuspended in basal medium (20 g/l bacto-tryptone, 5 g/l yeast extract, 57 g/l glucose, 0.8 g/l di-Potassium hydrogen orthophosphate, 0.8 g/l potassium dihydrogen orthophosphate and […] Hepes with antibiotics). 95 μl worm suspension was added to each well of a 96 well plate.
Test compounds were dissolved in dimethylsulfoxide to give a working stock solution of 20 mg/ml. The stock concentration was diluted 1:10 in Basal media to give 2.0 mg/ml (10% DMSO). 5 μl of the stock compound solution was added to the worm suspension to give a final concentration of 100 μg/ml. Plates were sealed with pressure sensitive film and incubated at 37° C. Observations were made 2 hrs, 24 hrs, 48 hrs, 72 hrs and 4 days post-treatment using an inverted microscope. Activity was recorded if a significant proportion of the worms were dead or adversely affected by the compound when compared to the control well containing 1% DMSO. Compounds were initially tested at 100 μg/ml, wherefrom relevant dose responses (100, 30, 10, 3, 1, 0.3, 0.1 μg/ml) were conducted in duplicate experiments to generate n=2. Data was recorded as minimum effective dose.
With `CC(C#N)(COc1ccc(F)cc1C#N)NC(=O)c1ccc(S(F)(F)(F)(F)F)cc1` (centres unmarked) [Example 27a, N-[1-Cyano-2-(2-cyano-4-fluorophenoxy)-1-methylethyl]-4-(pentafluorothio)benzamide] the “H.c. (L3) MED” value was 3 µg/mL.
`CC(C#N)(COc1ccc(F)c(C#N)c1)NC(=O)c1ccc(S(F)(F)(F)(F)F)cc1` (centres unmarked) [Example 27b, N-[1-Cyano-2-(3-cyano-4-fluorophenoxy)-1-methylethyl]-4-(pentafluorothio)benzamide] was tested, and the “H.c. (L3) MED” value was 3 µg/mL.
`CC(C#N)(COc1ccc(Cl)cc1F)NC(=O)c1ccc(S(F)(F)(F)(F)F)cc1` (centres unmarked) [Example 28, N-[2-(4-Chloro-2-fluorophenoxy)-1-cyano-1-methylethyl]-4-(pentafluorothio)benzamide] was tested, and the “H.c. (L3) MED” value was 3 µg/mL.
With `CC(C#N)(COc1ccc(C#N)cc1F)NC(=O)c1ccc(S(F)(F)(F)(F)F)cc1` (centres unmarked) [Example 29a, N-[1-Cyano-2-(4-cyano-2-fluorophenoxy)-1-methylethyl]-4-(pentafluorothio)benzamide] the “H.c. (L3) MED” value was 10 µg/mL.
With `CC(C#N)(COc1cc(C#N)ccc1F)NC(=O)c1ccc(S(F)(F)(F)(F)F)cc1` (centres unmarked) [Example 29b, N-[1-Cyano-2-(5-cyano-2-fluorophenoxy)-1-methylethyl]-4-(pentafluorothio)benzamide] the “H.c. (L3) MED” value was 10 µg/mL.
`CC(C#N)(COc1ccc(C(F)(F)F)cc1F)NC(=O)c1ccc(S(F)(F)(F)(F)F)cc1` (centres unmarked) [Example 30, N-{1-Cyano-2-[2-fluoro-4-(trifluoromethyl)phenoxy]-1-methylethyl}-4-(pentafluorothio)benzamide] was tested, and the “H.c. (L3) MED” value was 10 µg/mL.
`CC(C#N)(COc1cccc(Cl)c1)NC(=O)c1ccc(S(F)(F)(F)(F)F)cc1` (centres unmarked) [Example 31] was tested, and the “H.c. (L3) MED” value was 10 µg/mL.
With `CC(C#N)(COc1cc(C#N)ccc1Br)NC(=O)c1ccc(S(F)(F)(F)(F)F)cc1` (centres unmarked) [Example 32, N-[2-(2-Bromo-5-cyanophenoxy)-1-cyano-1-methylethyl]-4-(pentafluorothio)benzamide] the “H.c. (L3) MED” value was 3 µg/mL.
In the case of `CC(C#N)(COc1ccc(F)cc1Br)NC(=O)c1ccc(S(F)(F)(F)(F)F)cc1` (centres unmarked) [Example 33a, N-[2-(2-Bromo-4-fluorophenoxy)-1-cyano-1-methylethyl]-4-(pentafluorothio)benzamide], the “H.c. (L3) MED” value is reported as 10 µg/mL.
In the case of `CC(C#N)(COc1ccc(F)c(Br)c1)NC(=O)c1ccc(S(F)(F)(F)(F)F)cc1` (centres unmarked) [Example 33b, N-[2-(3-Bromo-4-fluorophenoxy)-1-cyano-1-methylethyl]-4-(pentafluorothio)benzamide], the “H.c. (L3) MED” value is reported as 10 µg/mL.
For `CC(C#N)(COc1ccc(Br)cc1F)NC(=O)c1ccc(S(F)(F)(F)(F)F)cc1` (centres unmarked) [Example 34, N-[2-(4-Bromo-2-fluorophenoxy)-1-cyano-1-methylethyl]-4-(pentafluorothio)benzamide], the “H.c. (L3) MED” value was 10 µg/mL.
In the case of `CC(C#N)(COc1cc(Br)cc(C#N)c1)NC(=O)c1ccc(S(F)(F)(F)(F)F)cc1` (centres unmarked) [Example 35, N-[2-(3-Bromo-5-cyanophenoxy)-1-cyano-1-methylethyl]-4-(pentafluorothio)benzamide], the “H.c. (L3) MED” value is reported as 3 µg/mL.
For `CC(C#N)(COc1cccc(C#N)c1C(F)(F)F)NC(=O)c1ccc(S(F)(F)(F)(F)F)cc1` (centres unmarked) [Example 36, N-{1-Cyano-2-[3-cyano-2-(trifluoromethyl)phenoxy]-1-methylethyl}-4-(pentafluorothio)benzamide], the “H.c. (L3) MED” value was 10 µg/mL.
With `CC(C#N)(COc1cccc(C#N)c1Br)NC(=O)c1ccc(S(F)(F)(F)(F)F)cc1` (centres unmarked) [Example 37, N-[2-(2-Bromo-3-cyanophenoxy)-1-cyano-1-methylethyl]-4-(pentafluorothio)benzamide] the “H.c. (L3) MED” value was 3 µg/mL.
`CC(C#N)(COc1cc(Cl)ccc1Cl)NC(=O)c1ccc(S(F)(F)(F)(F)F)cc1` (centres unmarked) [Example 38, N-[1-Cyano-2-(2,5-dichlorophenoxy)-1-methylethyl]-4-(pentafluorothio)benzamide] was tested, and the “H.c. (L3) MED” value was 10 µg/mL.
`CC(C#N)(COc1cccc(F)c1Cl)NC(=O)c1ccc(S(F)(F)(F)(F)F)cc1` (centres unmarked) [Example 39, N-[2-(2-Chloro-3-fluorophenoxy)-1-cyano-1-methylethyl]-4-(pentafluorothio)benzamide] was tested, and the “H.c. (L3) MED” value was 30 µg/mL.
In the case of `CC(C#N)(COc1cccc(Br)c1C#N)NC(=O)c1ccc(S(F)(F)(F)(F)F)cc1` (centres unmarked) [Example 40, N-[2-(3-Bromo-2-cyanophenoxy)-1-cyano-1-methylethyl]-4-(pentafluorothio)benzamide], the “H.c. (L3) MED” value is reported as 10 µg/mL.
In the case of `CC(C#N)(COc1ccc(Br)cc1C#N)NC(=O)c1ccc(S(F)(F)(F)(F)F)cc1` (centres unmarked) [Example 41, N-[2-(4-Bromo-2-cyanophenoxy)-1-cyano-1-methylethyl]-4-(pentafluorothio)benzamide], the “H.c. (L3) MED” value is reported as 10 µg/mL.
For `CC(C#N)(COc1cccc(Cl)c1Cl)NC(=O)c1ccc(S(F)(F)(F)(F)F)cc1` (centres unmarked) [Example 42, N-[1-Cyano-2-(2,3-dichlorophenoxy)-1-methylethyl]-4-(pentafluorothio)benzamide], the “H.c. (L3) MED” value was 30 µg/mL.
“N-[2-(2-Chloro-4-fluorophenoxy)-1-cyano-1-methylethyl]-4-(pentafluorothio)benzamide [Example 13a]” was tested, and the “H.c. (L3) MED” value was 1 µg/mL.
For “N-[2-(3-Chloro-4-fluorophenoxy)-1-cyano-1-methylethyl]-4-(pentafluorothio)benzamide [Example 13b]”, the “H.c. (L3) MED” value was 1 µg/mL.
With “N-[2-(4-Chlorophenoxy)-1-cyano-1-methylethyl]-(pentafluorothio)benzamide [Example 15]” the “H.c. (L3) MED” value was 30 µg/mL.

Same assay, conditions: minimum effective dose; table of Examples 45-49
For `CC(C#N)(COc1cc(C#N)ccc1C(N)=O)NC(=O)c1ccc(S(F)(F)(F)(F)F)cc1` (centres unmarked) [Example 45, 4-Cyano-2-(2-cyano-2-{[4-(pentafluorothio)benzoyl]amino}propoxy)benzamide], the “H.c. (L3) MED” value was 30 µg/mL.
For `CC(C#N)(COc1cc(C#N)ccc1C#N)NC(=O)c1ccc(S(F)(F)(F)(F)F)cc1` (centres unmarked) [Example 46, N-[1-Cyano-2-(2,5-dicyanophenoxy)-1-methylethyl]-4-(pentafluorothio)benzamide], the “H.c. (L3) MED” value was 10 µg/mL.
For `CC(C#N)(COc1ccc(C#N)cc1C#N)NC(=O)c1ccc(S(F)(F)(F)(F)F)cc1` (centres unmarked) [Example 47, N-[1-Cyano-2-(2,4-dicyanophenoxy)-1-methylethyl]-4-(pentafluorothio)benzamide], the “H.c. (L3) MED” value was 10 µg/mL.
With `CC(C#N)(COc1cc(F)cc(C#N)c1)NC(=O)c1ccc(S(F)(F)(F)(F)F)cc1` (centres unmarked) [Example 48, N-[1-Cyano-2-(3-cyano-5-fluorophenoxy)-1-methylethyl]-4-(pentafluorothio)benzamide] the “H.c. (L3) MED” value was 3 µg/mL.
For `CC(C#N)(COc1ccc(C(N)=O)cc1Cl)NC(=O)c1ccc(S(F)(F)(F)(F)F)cc1` (centres unmarked) [Example 49], the “H.c. (L3) MED” value was 10 µg/mL.

Same assay, conditions: minimum effective dose; table of Examples 51-52
For `CC(C#N)(COc1c(F)cc(C#N)cc1F)NC(=O)c1ccc(S(F)(F)(F)(F)F)cc1` (centres unmarked) [Example 51, N-[1-Cyano-2-(4-cyano-2,6-difluorophenoxy)-1-methylethyl]-4-(pentafluorothio)benzamide], the “H.c. (L3) MED” value was 3 µg/mL.
`CC(C#N)(COc1cccc(Cl)c1C(F)(F)F)NC(=O)c1ccc(S(F)(F)(F)(F)F)cc1` (centres unmarked) [Example 52, N-{2-[3-Chloro-2-(trifluoromethyl)phenoxy]-1-cyano-1-methylethyl}-4-(pentafluorothio)benzamide] was tested, and the “H.c. (L3) MED” value was 10 µg/mL.
